In ChEMBL document CHEMBL2390923, “Synthesis of 7-oxabicyclo[2.2.1]hept-5-en-2-yl derivatives and their screening for antimicrobial and antioxidant properties” (2013):
Converted amounts (≈) assume the structure as drawn.

Assays:
Type in all cases: functional
Escherichia coli [1] = assay: Antibacterial activity against Escherichia coli at 150 mg/ml after 24 hrs by well diffusion assay; settings: read-out: DIZ
Staphylococcus aureus [2] = assay: Antibacterial activity against Staphylococcus aureus at 125 mg/ml after 24 hrs by well diffusion assay; settings: read-out: DIZ
Klebsiella pneumoniae [3] = assay: Antibacterial activity against Klebsiella pneumoniae at 125 mg/ml after 24 hrs by well diffusion assay; settings: read-out: DIZ
Klebsiella pneumoniae [4] = assay: Antibacterial activity against Klebsiella pneumoniae at 150 mg/ml after 24 hrs by well diffusion assay; settings: read-out: DIZ
Bacillus subtilis [5] = assay: Antibacterial activity against Bacillus subtilis after 18 to 24 hrs by microdilution broth assay
Escherichia coli [6] = assay: Antibacterial activity against Escherichia coli after 18 to 24 hrs by microdilution broth assay
Vibrio cholerae [7] = assay: Antibacterial activity against Vibrio cholerae after 18 to 24 hrs by microdilution broth assay
Vibrio cholerae [8] = assay: Antibacterial activity against Vibrio cholerae at 150 mg/ml after 24 hrs by well diffusion assay; settings: read-out: DIZ
Bacillus subtilis [9] = assay: Antibacterial activity against Bacillus subtilis at 125 mg/ml after 24 hrs by well diffusion assay; settings: read-out: DIZ
Staphylococcus aureus [10] = assay: Antibacterial activity against Staphylococcus aureus at 150 mg/ml after 24 hrs by well diffusion assay; settings: read-out: DIZ
Staphylococcus aureus [11] = assay: Antibacterial activity against Staphylococcus aureus at 100 mg/ml after 24 hrs by well diffusion assay; settings: read-out: DIZ
Bacillus subtilis [12] = assay: Antibacterial activity against Bacillus subtilis at 150 mg/ml after 24 hrs by well diffusion assay; settings: read-out: DIZ
Klebsiella pneumoniae [13] = assay: Antibacterial activity against Klebsiella pneumoniae after 18 to 24 hrs by microdilution broth assay
Bacillus subtilis [14] = assay: Antibacterial activity against Bacillus subtilis at 100 mg/ml after 24 hrs by well diffusion assay; settings: read-out: DIZ
Escherichia coli [15] = assay: Antibacterial activity against Escherichia coli at 125 mg/ml after 24 hrs by well diffusion assay; settings: read-out: DIZ
[16] = tested on: Radical scavenging activity; assay: Antioxidant activity assessed as DPPH radical scavenging activity after 30 mins; parameters: concentration or dose not given beside the values
Staphylococcus aureus [17] = assay: Antibacterial activity against Staphylococcus aureus after 18 to 24 hrs by microdilution broth assay
Klebsiella pneumoniae [18] = assay: Antibacterial activity against Klebsiella pneumoniae at 100 mg/ml after 24 hrs by well diffusion assay; settings: read-out: DIZ
Vibrio cholerae [19] = assay: Antibacterial activity against Vibrio cholerae at 125 mg/ml after 24 hrs by well diffusion assay; settings: read-out: DIZ
Vibrio cholerae [20] = assay: Antibacterial activity against Vibrio cholerae at 100 mg/ml after 24 hrs by well diffusion assay; settings: read-out: DIZ
Escherichia coli [21] = assay: Antibacterial activity against Escherichia coli at 100 mg/ml after 24 hrs by well diffusion assay; settings: read-out: DIZ

Compound | zone of inhibition at 150000 µg/mL (Escherichia coli [1]) [mm] | zone of inhibition at 125000 µg/mL (Staphylococcus aureus [2]) [mm] | zone of inhibition at 125000 µg/mL (Klebsiella pneumoniae [3]) [mm] | zone of inhibition at 150000 µg/mL (Klebsiella pneumoniae [4]) [mm] | MIC (Bacillus subtilis [5]) [mg/L] | MIC (Escherichia coli [6]) [mg/L] | MIC (Vibrio cholerae [7]) [mg/L] | zone of inhibition at 150000 µg/mL (Vibrio cholerae [8]) [mm] | zone of inhibition at 125000 µg/mL (Bacillus subtilis [9]) [mm] | zone of inhibition at 150000 µg/mL (Staphylococcus aureus [10]) [mm] | zone of inhibition at 100000 µg/mL (Staphylococcus aureus [11]) [mm] | zone of inhibition at 150000 µg/mL (Bacillus subtilis [12]) [mm] | MIC (Klebsiella pneumoniae [13]) [mg/L] | zone of inhibition at 100000 µg/mL (Bacillus subtilis [14]) [mm] | zone of inhibition at 125000 µg/mL (Escherichia coli [15]) [mm] | inhibition [16] [%] | MIC (Staphylococcus aureus [17]) [mg/L] | zone of inhibition at 100000 µg/mL (Klebsiella pneumoniae [18]) [mm] | zone of inhibition at 125000 µg/mL (Vibrio cholerae [19]) [mm] | zone of inhibition at 100000 µg/mL (Escherichia coli [21]) [mm] | also measured
CCC12C=CC(O1)C(C(=O)c1ccccc1)C2c1cccc(Br)c1 (stereo not drawn) | 15 | 12 | 12 | 14 | 312 (≈ 814 µM) | 312 (≈ 814 µM) | 625 (≈ 1630 µM) | 11 | 14 | 15 | 11 | 17 | 156 (≈ 407 µM) | 11 | 12 | 23.2 | 31 (≈ 80.9 µM) | – | – | – | –
O=C(O)c1cn(C2CC2)c2cc(N3CCNCC3)c(F)cc2c1=O [CIPROFLOXACIN] | – | 16 | 23 | 23 | 125 (≈ 377 µM) | 62 (≈ 187 µM) | 15 (≈ 45.3 µM) | 16 | 18 | 16 | 16 | 18 | 7 (≈ 21.1 µM) | 18 | – | – | 15 (≈ 45.3 µM) | 23 | 16 | – | zone of inhibition at 100000 µg/mL (Vibrio cholerae [20]): 16 mm
CCC12C=CC(O1)C(C(=O)c1ccccc1)C2c1cccc(F)c1 (stereo not drawn) | 12 | 14 | 11 | 12 | 1250 (≈ 3880 µM) | 1250 (≈ 3880 µM) | 625 (≈ 1940 µM) | 15 | – | 16 | 11 | 12 | 312 (≈ 968 µM) | – | 11 | 22.3 | 625 (≈ 1940 µM) | – | 14 | – | zone of inhibition at 100000 µg/mL (Vibrio cholerae [20]): 12 mm
CCC12C=CC(O1)C(C(=O)c1ccccc1)C2c1ccccc1F (stereo not drawn) | 12 | 15 | 13 | 14 | 1250 (≈ 3880 µM) | 1250 (≈ 3880 µM) | 625 (≈ 1940 µM) | – | – | 16 | 13 | – | 625 (≈ 1940 µM) | – | – | 18.1 | 1250 (≈ 3880 µM) | 10 | – | – | –
CCC12C=CC(O1)C(C(=O)c1ccccc1)C2c1ccccc1Br (stereo not drawn) | 15 | 14 | – | 11 | 1250 (≈ 3260 µM) | 1250 (≈ 3260 µM) | 625 (≈ 1630 µM) | – | – | 16 | 13 | – | 625 (≈ 1630 µM) | – | 14 | 17.7 | 1250 (≈ 3260 µM) | – | – | 11 | –
Cc1cc(C(C)(C)C)c(O)c(C(C)(C)C)c1 | – | – | – | – | – | – | – | – | – | – | – | – | – | – | – | 58.4 | – | – | – | – | –
CCC12C=CC(O1)C(C(=O)c1cccc(Br)c1)C2c1ccccc1 (stereo not drawn) | 14 | – | – | – | 625 (≈ 1630 µM) | 625 (≈ 1630 µM) | 625 (≈ 1630 µM) | 12 | – | – | – | – | 312 (≈ 814 µM) | – | 12 | 36 | 625 (≈ 1630 µM) | – | – | – | –
CCC12C=CC(O1)C(C(=O)c1ccccc1)C2c1ccccc1Cl (stereo not drawn) | 16 | 15 | 11 | 12 | 1250 (≈ 3690 µM) | 1250 (≈ 3690 µM) | 625 (≈ 1840 µM) | 14 | 12 | 16 | 12 | 13 | 625 (≈ 1840 µM) | 10 | 14 | 22.2 | 1250 (≈ 3690 µM) | 9 | 12 | 13 | zone of inhibition at 100000 µg/mL (Vibrio cholerae [20]): 11 mm
CCC12C=CC(O1)C(C(=O)c1ccccc1)C2c1ccc(OC)cc1 (stereo not drawn) | – | 11 | – | – | 625 (≈ 1870 µM) | 625 (≈ 1870 µM) | 625 (≈ 1870 µM) | 17 | – | 13 | – | – | 625 (≈ 1870 µM) | – | – | 15.1 | 1250 (≈ 3740 µM) | – | 14 | – | zone of inhibition at 100000 µg/mL (Vibrio cholerae [20]): 12 mm
CCC12C=CC(O1)C(C(=O)c1ccccc1)C2c1ccc([N+](=O)[O-])cc1 (stereo not drawn) | 14 | – | – | – | 1250 (≈ 3580 µM) | 1250 (≈ 3580 µM) | 1250 (≈ 3580 µM) | – | – | 13 | – | – | 625 (≈ 1790 µM) | – | 14 | 21.6 | 1250 (≈ 3580 µM) | – | – | 12 | –
CCC12C=CC(O1)C(C(=O)c1ccccc1)C2c1ccc(F)cc1 (stereo not drawn) | 13 | 13 | – | 12 | 625 (≈ 1940 µM) | 625 (≈ 1940 µM) | 625 (≈ 1940 µM) | – | – | 15 | – | – | 625 (≈ 1940 µM) | – | 11 | 42.4 | 1250 (≈ 3880 µM) | – | – | 10 | –
CCC12C=CC(O1)C(C(=O)c1ccccc1)C2c1ccccc1 (stereo not drawn) | 15 | – | 16 | 19 | 312 (≈ 1030 µM) | 312 (≈ 1030 µM) | 1250 (≈ 4110 µM) | – | 16 | – | – | 18 | 4 (≈ 13.1 µM) | 12 | 14 | 58.9 | 625 (≈ 2050 µM) | 13 | – | – | –
CCC12C=CC(O1)C(C(=O)c1ccccc1)C2c1ccc(C#N)cc1 (stereo not drawn) | 16 | 11 | 13 | 15 | 156 (≈ 474 µM) | 156 (≈ 474 µM) | 1250 (≈ 3790 µM) | – | 13 | 13 | – | 15 | 156 (≈ 474 µM) | 11 | 15 | 58.9 | 156 (≈ 474 µM) | 10 | – | 11 | –
CCC12C=CC(O1)C(C(=O)c1ccccc1)C2c1cccc(OC)c1 (stereo not drawn) | 16 | 15 | 12 | 13 | 625 (≈ 1870 µM) | 625 (≈ 1870 µM) | 625 (≈ 1870 µM) | – | – | 17 | – | – | 312 (≈ 933 µM) | – | 15 | 33.4 | 625 (≈ 1870 µM) | – | – | 13 | –
CCC12C=CC(O1)C(C(=O)c1ccccc1)C2c1ccc(Br)cc1 (stereo not drawn) | 18 | 13 | 11 | 12 | 312 (≈ 814 µM) | 312 (≈ 814 µM) | 625 (≈ 1630 µM) | 12 | – | 14 | 11 | 12 | 156 (≈ 407 µM) | – | 14 | 30.5 | 156 (≈ 407 µM) | – | 11 | – | –
CCC12C=CC(O1)C(C(=O)c1ccc(Br)cc1)C2c1ccccc1 (stereo not drawn) | 17 | 13 | 14 | 16 | 78 (≈ 204 µM) | 78 (≈ 204 µM) | 312 (≈ 814 µM) | 11 | 14 | 17 | 11 | 17 | 78 (≈ 204 µM) | 12 | 16 | 32.6 | 1250 (≈ 3260 µM) | 11 | 10 | 12 | –
CCC12C=CC(O1)C(C(=O)c1ccccc1)C2c1ccc(Cl)cc1 (stereo not drawn) | – | – | 11 | 15 | 322 (≈ 950 µM) | 312 (≈ 921 µM) | 625 (≈ 1840 µM) | 14 | – | 13 | – | – | 156 (≈ 460 µM) | – | – | 35.5 | 625 (≈ 1840 µM) | – | 13 | – | zone of inhibition at 100000 µg/mL (Vibrio cholerae [20]): 11 mm
